{"source": "patent US20170051149A1", "about": "“AZOARYLS AS REVERSIBLY MODULATABLE TUBULIN INHIBITORS” (ECOLE NORMALE SUPERIEURE DE LYON, priority 2014, published 2017)", "format_in_all_cases": "physicochemical", "key": {"[1]": {"experiment": "UV-Vis absorption spectra of trans and cis isomers (λstrong, εE, λiso)", "details": "PBS pH = 7.4, 20% MeCN", "protocol": "A(λmeas, λirrad) is used to indicate the measured UV-Vis absorption spectrum in the range 340 nm<λmeas<650 nm, as a function of the irradiating wavelength λirrad once PSS(λirrad) has been established. UV-Vis measurement of A(λmeas, λirrad) was performed. It was considered that the PSS had been established when the absorbance profile ceased to alter under continued irradiation. An isosbestic point (wavelength λiso) was found for each compound by examining where the absorption A(λmeas) was invariant with respect to changing λirrad. A(λmeas, dark) was also acquired with samples that had been kept in the dark for at least several hours, and it was assumed that no significant spectral contribution from the cis isomer was present in these spectra. […]\nHPLC (high-performance liquid chromatography) was then used as described in Part A to measure ε*E(λ) and ε*Z(λ) (the separated absorption profiles of trans and cis isomers respectively, in arbitrary units which are not intercomparable in an absolute sense). It was approximated that these spectra would be identical in shape if measured under the UV-Vis conditions, so once ε*E(λ) and ε*Z(λ) were scaled appropriately relative to each other, these scaled spectra could be used to deconvolute A(λmeas, λirrad). This approximation was considered useful especially in the regions of greatest spectral interest, ie. regions of relatively strong absorption (since only rather well-absorbed wavelengths will allow significant photoisomerisation under finite photon flux). To place the arbitrary-unit absorption spectra on an absolute scale, the maximal absorption wavelength λstrong of the trans-isomer was first selected by examining A(λmeas, dark): typically, λstrong≈380 nm. with Expressing A(λstrong, dark) in units M^−1cm^−1, ε*E(λstrong) was then scaled so that εE(λstrong)=A(λstrong, dark), giving:\nεE(λ)=ε*E(λ)×[A(λstrong,dark)/ε*E(λstrong)]\nand the isosbestic point was used to scale the cis-isomer spectrum as per:\nεZ(λ)=ε*Z(λ)×[εE(λiso)/ε*Z(λiso)]\nHowever, using A(λstrong, dark) was preferred, since A(λiso) was typically so much smaller that the standard deviation in the scaled absorptivities which it generated was far greater.\nAbsorption spectra in cuvette (“UV-Vis”) were acquired on a Varian CaryScan 50 (1 cm, 100 μL or 1 mL volume) with Peltier cell temperature control unit maintained at 37° C., in PBS at pH˜7.4 containing a low percentage of cosolvent if needed (typically 2% MeCN or 5% DMSO). A ThorLabs Polychrome V monochromator with a fibre optic cable output directed into the cuvette was used to perform photoisomerisation studies by UV-Vis spectrophotometry although single LEDs of approximately 10-20 mW output, 15-20° cone angle, and 10-15 nm bandwidth FWHM, obtained commercially from Roithner Lasertechnik GmbH, were equally successful in providing repeatable monochromatic photoisomerisation. Separated spectra of trans and […] forms were acquired from the inline Diode Array Detector on the AGILENT 1260 SL coupled LC-MS system after HPLC separation. Fluorescence spectrophotometry (excitation and emission spectra) were acquired on a Varian CaryEclipse fluorescence spectrophotometer.\nBy the above procedure, the trans- and cis-isomers of each species were separated by HPLC as described in Part A, and ε*E(λ) and ε*Z(λ) were measured on the inline ultraviolet/visible Diode Array Detector; these were then scaled as outlined above. The parameters λstrong, εE(λstrong) and λiso are tabulated for selected compounds below (Table 1)."}, "[2]": {"experiment": "thermal reversion halflife of spontaneous cis->trans isomerisation", "details": "PBS pH = 7.4, 20% MeCN", "text": "Finally, trends in τ were ascertained by establishing the PSS at λstrong, then turning off the light source at time t0, and measuring A(λstrong, t) over time. Data were acquired for half an hour, or else the first three halflives (whichever was the shorter period), then fitted to the equation:\nA(λstrong,t)=A(λstrong,dark)−[A(λstrong,dark)−A(λstrong,t0)]×e^−kt\nThis fit was used to return an in vitro halflife τ* for the cis->trans spontaneous thermal reversion isomerisation process, defined as τ=ln 2/k. It should be noted however, that azoaryl compounds' thermal reversion rates are known to depend strongly upon their microenvironment, such as pH and solvent/solvation effects^[7,38]. This was shown for compound (I.1), where a change of only 1.4 pH units gave a 25% change in τ*; note that different compounds are expected to respond very differently to changes in pH so no unifying trends are expected. Therefore the τ* acquired in vitro were considered appropriate only for qualitative intercomparison between samples (trend of τ* vs structure), rather than quantitative prediction of the τ values which might be experienced in cellulo or in vivo. Indeed, these in vitro τ* values appeared at least three times longer than what would have been expected based on in cellulo experiments where the pause time between activating pulses was varied.\nThermal reversion times were measured as described above. Those for selected compounds are presented below (Table 2)."}, "[3]": {"experiment": "photoisomerisation: photostationary state, calculated φ(λ) and E(λ), reversible cycling", "details": "irradiation at 390 nm", "protocol": "In a simple analysis of the PSS(λ) and E(λ), it was approximated that ΦEZ and ΦZE (the quantum efficiencies of the photoisomerisations trans->cis and cis->trans, respectively) are equal and independent of wavelength, and also that the kinetics of spontaneous reversion could be ignored (eg. high-intensity light source). A function φ(λ) was then calculated as per: […]\nIf ΦEZ and ΦZE are equal and independent of wavelength, φ(λ) gives the true PSS(λ). The wavelength independence of ΦEZ and ΦZE may be an acceptable approximation in regions of relatively strong absorption within the visible spectrum. Their equality may also be an acceptable assumption: since if ΦEZ and ΦZE are unequal but only depend weakly on wavelength in regions of relatively strong absorption, then φ(λ) is a transform of the true PSS(λ); this transform preserves the features of PSS(λ) which were most desired for evaluation in this study as long as ΦEZ and ΦZE are not too different (eg less than a factor of ten difference). Indeed, the calculated φ(λ) were later confirmed by in cellulo experiments to give reliable indications of favourable wavelengths for bulk trans->cis and bulk cis->trans photoisomerisation, which is the benchmark for a suitable analysis of the PSS(λ). The advantages of calculating φ(λ) rather than exhaustively measuring the PSS(λ) experimentally are that (a) the throughput is much faster, (b) the true PSS(λ) may be difficult to achieve at weakly-absorbing wavelengths or with fast-relaxing compounds, (c) the true PSS(λ) may be difficult to measure accurately at wavelengths where one isomer strongly dominates the sample even if both are relatively strongly absorbing, and (d) the variation of PSS(λ) with changes in the local biological microenvironment (polarity, pH etc) may anyway be larger than the error incurred by the assumption φ(λ)═PSS(λ).\nAlso following the assumption that ΦEZ and ΦZE are equal and independent of wavelength, a photoisomerisation efficiency E(λ) was calculated as per:\nE(λ)=[εE(λ)+εZ(λ)]/[εE(390)+εZ(390)]\nLarger values of E(λ) therefore denote higher efficiency photoisomerisation (less photon flux is required to approach the PSS(λ)). E(λ) was parametrised to the absorption coefficients at 390 nm, since typically that wavelength gave satisfactorily strong absorption and efficient photoisomerisation. It should be noted that E(λ) are not intercomparable between different compounds. This reflects the realistic scenario that the ΦEZ (or the ΦZE) of two arbitrarily chosen compounds may differ by a significant amount, even if the approximation that ΦEZ and ΦZE are equal and independent of wavelength applies independently to each compound.\nA(λstrong) was measured over time in the UV-Vis cuvette in non-degassed PBS left open to the atmosphere, […], at 37° C., while the monochromator was used to apply λirrad alternating between two values λ1 and λ2, chosen to induce net trans->cis and net cis->trans isomerisation respectively. Typical results are presented for compound I.1 (FIG. 3). The absorbance of I.1 (18 μM) was measured at λstrong=378 nm, while the irradiating wavelength was held alternately at λ1=388 nm (50 s; bulk trans->cis) then λ2=508 nm (180 s, bulk cis->trans). Higher absorbance corresponds to a greater amount of trans isomer: an absorbance of 0.27 here corresponds to an approximately 5:1 ratio of trans:cis isomer in the sample, and an absorbance of 0.12 here corresponds to an approximately 1:2 ratio of trans:cis isomer in the sample. […] Typically, compounds of the invention could be bulk-photoisomerised hundreds of times over a timescale of hours (50 representative cycles are shown in FIG. 3 for I.1), such that the majority species in a sample was photocontrollably alternated between the trans-isomer and the cis-isomer. […]"}}}
{"molecule": "COc1ccc(N=Nc2cc(OC)c(OC)c(OC)c2)c(O)c1C", "note": "[I.17, 3-methoxy-2-methyl-6-((3,4,5-trimethoxyphenyl)diazenyl)phenol]", "values": [{"measurement": "εE(λstrong)", "setting": "[1]", "value": 10872, "unit": "M⁻¹ cm⁻¹"}, {"measurement": "λstrong", "setting": "[1]", "value": 385, "unit": "nm"}, {"measurement": "τ, reversion time", "setting": "[2]", "value": "TOO FAST"}, {"measurement": "change in absorbance spectrum upon irradiation", "setting": "[3]", "value": "no measurable change in absorbance spectrum"}]}
{"molecule": "COc1ccc(N=Nc2cc(OC)c(OC)c(OC)c2)c(N)c1", "note": "[I.16, 5-methoxy-2-((3,4,5-trimethoxyphenyl)diazenyl)aniline]", "values": [{"measurement": "εE(λstrong)", "setting": "[1]", "value": 14430, "unit": "M⁻¹ cm⁻¹"}, {"measurement": "λstrong", "setting": "[1]", "value": 410, "unit": "nm"}, {"measurement": "τ, reversion time", "setting": "[2]", "value": "TOO FAST"}, {"measurement": "change in absorbance spectrum upon irradiation", "setting": "[3]", "value": "no measurable change in absorbance spectrum"}]}
{"molecule": "COc1ccc(N=Nc2cc(OC)c(OC)c(OC)c2)c(O)c1", "note": "[I.8, 5-methoxy-2-((3,4,5-trimethoxyphenyl)diazenyl)phenol]", "values": [{"measurement": "εE(λstrong)", "setting": "[1]", "value": 14900, "unit": "M⁻¹ cm⁻¹"}, {"measurement": "λstrong", "setting": "[1]", "value": 390, "unit": "nm"}, {"measurement": "τ, reversion time", "setting": "[2]", "value": "TOO FAST"}, {"measurement": "change in absorbance spectrum upon irradiation", "setting": "[3]", "value": "no measurable change in absorbance spectrum"}]}
